# What was measured:
# OVCAR-8 cells [1] = experiment: Drug-siRNA combination screen: 346-compound anticancer library at 100 nM, CCK-8 viability; conditions: OVCAR-8; for Score (sum of observed SD values for 18 genes): drug 100 nM plus siRNA knockdown of each of 18 genes, distance VAB−VA×VB in SD, single gene contributes at most +5 / −5, negative = synergy, positive = antagonism
# OVCAR-8 cells [2] = experiment: Drug titration (GI50) with S100A11 siRNA knockdown versus sham control; type: cell-based; conditions: serial dilution of drug, three replicates
# Description: Statistical analyses were performed using the R language and environment for statistical computing (R version 3.3.1; R Foundation for Statistical Computing) and Microsoft Excel. Student's T-test (two-tailed, unpaired) was used to calculate p-values for confirmation of drug effect. GI50 values were calculated using a four-parameter logistic function to obtain a classical “s” curve for drug titrations using SigmaPlot (Systat Software, San Jose, CA). Heatmaps were created using the R package “pheatmap”. Clustering was done with WPGMA hierarchical clustering. QIAGEN's Ingenuity Pathway Analysis (IPA®, QIAGEN Redwood City) was utilized for assessment of network and pathway contributions of top genes identified using the NCI-60 correlations.
# An important measure of synergism is the dosage reduction of a therapeutic compound by another agent. Titration screening with several compounds was performed to compare growth curves with and without knockdown of S100A11 or KLHL5. […] KLHL5 also was synergistic with other cell cycle inhibitors and PI3K-AKT-mTOR inhibitors. Titration curves and calculation of GI50 were performed for twenty-four compounds.
# AB1-HA tumor model = conditions: CTX treatment at Day 9; cited from earlier work
structure (smiles),measurement,setting,value
O=C(/C=C/c1cccc(S(=O)(=O)Nc2ccccc2)c1)NO [Belinostat],Score (sum of observed SD values for 18 genes),OVCAR-8 cells [1],−20.81 SD
same,"synergy / antagonism of drug with gene knockdowns, in words","OVCAR-8 cells [1]; drug 100 nM, panel of 18 siRNA knockdowns",mostly synergistic
same,dose reduction of GI50 value by S100A11 siRNA versus sham control,OVCAR-8 cells [2],5.56 fold
"Cn1cc(CNCC2CCN(c3ncc(C(=O)NO)cn3)CC2)c2ccccc21 [JNJ-26481585, Quisinostat]",Score (sum of observed SD values for 18 genes),OVCAR-8 cells [1],−2.31 SD
same,dose reduction of GI50 value by S100A11 siRNA versus sham control,OVCAR-8 cells [2],5.53 fold
O=P1(N(CCCl)CCCl)NCCCO1 (stereo not drawn) [Cyclophosphamide],cure rate,AB1-HA tumor model,75%

# — patent US11946094B2, “Combination therapies and methods of use thereof” (Augusta University Research Institute, Inc., priority 2017, dated 2024)
